The structures appear in SMILES notation. Where “and” joins values, the source holds several entries; their conditions need not be identical. Equal values may be shown once.

The first test deals with dispersed rat pituitary cells. Format: cell-based.
Details: not given
As to the method: The peptides prepared in the foregoing Example I are assayed in vitro using a four-day-old primary culture of dispersed rat pituitary cells and compared with LRF. The levels of LH secreted over a 4-hour period in response to the application of peptides are assayed by specific radioimmunoassay for rat LH. The results of testing are expressed in the tables herebelow: […]
Regarding `CC(C)C[C@H](NC(=O)CNC(=O)[C@H](Cc1ccc(O)cc1)NC(=O)[C@H](CO)NC(=O)[C@H](Cc1c[nH]c2ccccc12)NC(=O)[C@H](Cc1c[nH]cn1)NC(=O)[C@@H]1CCC(=O)N1)C(=O)N[C@@H](CCCNC(=N)N)C(=O)N1CCC[C@H]1C(=O)NCC(N)=O` [LRF, p-Glu-His-Trp-Ser-Tyr-Gly-Leu-Arg-Pro-Gly-NH2, reference compound], the “NANOGRAMS OF LH SECRETED/ml. 4 hr.” value is 898 and 1240 and 1702.

Still in this test, the particulars now being: in vitro LH release, LRF = 1; confidence limits in parentheses.
`CCNC(=O)[C@@H]1CCCN1C(=O)[C@H](CCCNC(=N)N)NC(=O)[C@H](CC(C)C)NC(=O)[C@@H](Cc1ccc(OC)cc1)NC(=O)[C@H](Cc1ccc(O)cc1)NC(=O)[C@H](CO)NC(=O)[C@H](Cc1c[nH]c2ccccc12)NC(=O)[C@H](Cc1c[nH]cn1)NC(=O)[C@@H]1CCC(=O)N1` [Peptide No. 2, [OCH3 -D-Phe^6, Pro^9 -NEt]-LRF]: the “Potency (relative to LRF)” value is recorded as 130(72-242).

`CCNC(=O)[C@@H]1CCCN1C(=O)[C@H](CCCNC(=N)N)NC(=O)[C@H](CC(C)C)NC(=O)[C@@H](Cc1c(C)c(C)c(C)c(C)c1C)NC(=O)[C@H](Cc1ccc(O)cc1)NC(=O)[C@H](CO)NC(=O)[C@H](Cc1c[nH]c2ccccc12)NC(=O)[C@H](Cc1c[nH]cn1)NC(=O)[C@@H]1CCC(=O)N1` [Peptide No. 7, [pentamethyl-D-Phe^6, Pro^9 -NEt]-LRF]: the “Potency (relative to LRF)” value is on record as 86(50-145).

Turning to `CCNC(=O)[C@@H]1CCCN1C(=O)[C@H](CCCNC(=N)N)NC(=O)[C@H](CC(C)C)NC(=O)[C@@H](Cc1ccc(OC)cc1)NC(=O)[C@H](Cc1ccc(O)cc1)NC(=O)[C@H](CO)NC(=O)[C@H](Cc1c[nH]c2ccccc12)NC(=O)[C@H](Cc1c[nH]cn1)NC(=O)[C@@H]1CCC(=O)N1` [[OCH3 -D-Phe^6, Pro^9 -NEt]-LRF], the “Potency (relative to LRF)” value is “about 130”.

Consider `CCNC(=O)[C@@H]1CCCN1C(=O)[C@H](CCCNC(=N)N)NC(=O)[C@H](CC(C)C)NC(=O)[C@@H](Cc1c(C)c(C)c(C)c(C)c1C)NC(=O)[C@H](Cc1ccc(O)cc1)NC(=O)[C@H](CO)NC(=O)[C@H](Cc1c[nH]c2ccccc12)NC(=O)[C@H](Cc1c[nH]cn1)NC(=O)[C@@H]1CCC(=O)N1` [[pentamethyl-D-Phe^6, Pro^9 -NEt]-LRF], for which the “Potency (relative to LRF)” value is “about 86”.

On to `CCNC(=O)[C@@H]1CCCN1C(=O)[C@H](CCCNC(=N)N)NC(=O)[C@H](CC(C)C)NC(=O)[C@@H](Cc1ccc([N+](=O)[O-])cc1)NC(=O)[C@H](Cc1ccc(O)cc1)NC(=O)[C@H](CO)NC(=O)[C@H](Cc1c[nH]c2ccccc12)NC(=O)[C@H](Cc1c[nH]cn1)NC(=O)[C@@H]1CCC(=O)N1` [compound 1, [pNO2 -D-Phe^6, Pro^9 -NEt]-LRF], for which the “Potency (relative to LRF)” value is given as 141 (83-297).

As for `CCNC(=O)[C@@H]1CCCN1C(=O)[C@H](CCCNC(=N)N)NC(=O)[C@H](CC(C)C)NC(=O)[C@@H](Cc1ccc(C)cc1)NC(=O)[C@H](Cc1ccc(O)cc1)NC(=O)[C@H](CO)NC(=O)[C@H](Cc1c[nH]c2ccccc12)NC(=O)[C@H](Cc1c[nH]cn1)NC(=O)[C@@H]1CCC(=O)N1` [compound 3], the “Potency (relative to LRF)” value is 143 (79-268).

With `CCNC(=O)[C@@H]1CCCN1C(=O)[C@H](CCCNC(=N)N)NC(=O)[C@H](CC(C)C)NC(=O)[C@@H](Cc1ccc(Cl)cc1)NC(=O)[C@H](Cc1ccc(O)cc1)NC(=O)[C@H](CO)NC(=O)[C@H](Cc1c[nH]c2ccccc12)NC(=O)[C@H](Cc1c[nH]cn1)NC(=O)[C@@H]1CCC(=O)N1` [compound 4], the “Potency (relative to LRF)” value is listed as 59 (29-120).

Consider `CCNC(=O)[C@@H]1CCCN1C(=O)[C@H](CCCNC(=N)N)NC(=O)[C@H](CC(C)C)NC(=O)[C@@H](Cc1ccc(Cl)c(Cl)c1)NC(=O)[C@H](Cc1ccc(O)cc1)NC(=O)[C@H](CO)NC(=O)[C@H](Cc1c[nH]c2ccccc12)NC(=O)[C@H](Cc1c[nH]cn1)NC(=O)[C@@H]1CCC(=O)N1` [compound 5], for which the “Potency (relative to LRF)” value is given as 38 (16-82).

Take `CCNC(=O)[C@@H]1CCCN1C(=O)[C@H](CCCNC(=N)N)NC(=O)[C@H](CC(C)C)NC(=O)[C@@H](Cc1ccc(NC(C)=O)cc1)NC(=O)[C@H](Cc1ccc(O)cc1)NC(=O)[C@H](CO)NC(=O)[C@H](Cc1c[nH]c2ccccc12)NC(=O)[C@H](Cc1c[nH]cn1)NC(=O)[C@@H]1CCC(=O)N1` [compound 6]: the “Potency (relative to LRF)” value was 36 (21-69).

Turning to `CCNC(=O)[C@@H]1CCCN1C(=O)[C@H](CCCNC(=N)N)NC(=O)[C@H](CC(C)C)NC(=O)[C@@H](Cc1ccccc1)NC(=O)[C@H](Cc1ccc(O)cc1)NC(=O)[C@H](CO)NC(=O)[C@H](Cc1c[nH]c2ccccc12)NC(=O)[C@H](Cc1c[nH]cn1)NC(=O)[C@@H]1CCC(=O)N1` [compound 8], the “Potency (relative to LRF)” value is listed as 78 (46-132).

The values above are taken from patent US4382922A, “Peptides affecting gonadal function” (The Salk Institute for Biological Studies, priority 1982, dated 1983).
